The subject of assay [1] is murine antigen induced arthritis. Kind of assay: murine antigen-induced arthritis, histological score. Type of assay: in vivo, mice. As to conditions: 15 mg/kg IP once per 24 hours, day 28. The method, then:
Antigen-induced arthritis was induced in mice. C57BL6/J male mice, aged 7-10 weeks old, were immunized on day 0 with 200 μg methylated BSA (mBSA) emulsified in 200 μl of Freund's complete adjuvant (FCA) injected subcutaneously into the flank skin. Mice were treated with compound 5, administered by intraperitoneal injection, once per 24 hours at a dose of 15 mg/kg body weight. After seven days, mice received 100 μg mBSA and 100 μl FCA by intradermal injection at the base of the tail. After a further 14 days, arthritis was induced by intra-articular injection of 30 μg mBSA in 10 μl of sterile saline into the left knee, the right knee being injected with sterile saline alone.
Arthritis was analysed histologically at day 28 after first immunisation. Knee joints were dissected and fixed in 10% buffered formalin for 7 days. Fixed tissues were decalcified for 3 weeks in 15% ethylene-diamine-tetra-acetic acid (EDTA), dehydrated and embedded in paraffin. Sagittal sections (5 μm) of the knee joint were stained with Safranin-O and counterstained with fast green/iron hematoxylin. Histological sections were scored from 0 to 3 for four parameters: Synovitis was defined as hyper-cellularity of the synovium including pannus formation. Joint space exudate was identified as leukocytes, discretely or in aggregates, in the joint space. Cartilage degradation was defined as the loss of Safranin-O staining of articular cartilage (0=full stained cartilage, 3=totally unstained cartilage). Bone damage was defined as the extent and depth of the subchondral bone invasion by pannus. A total score was also generated from the sum of these four parameters (maximum 12).

For assay [2], the system named is murine peritoneal macrophage cytokine production. Description: inhibition of peritoneal macrophage cytokine production (ELISA). Type of assay: cell-based, mice. The conditions noted are these: Mus musculus. The method, then: C57BL6/J male mice were injected intraperitoneally with 2 ml of thioglycollate. Five (5) days later peritoneal macrophages were collected by lavaging the peritoneum of anaesthetized mice with 3 ml of cold Hanks buffered saline solution. Cells from several mice were pooled, washed and re-suspended in DMEM supplemented with 5% FCS. Cells were plated in 96 well plastic tissue culture plates at 1×10^5 cells/well. Cells were treated with compound or vehicle for 1 hour in a 5% CO2 incubator at 37° C. Cells were then treated with LPS (10-100 ng/ml) or recombinant human interferon-γ (10 units/ml) and incubated for 24 hours. After 24 hours, 50 μl of supernatant from each well was carefully removed and transferred to ELISA plates. The concentration of interleukin 1 (IL-1) or interleukin 6 (IL-6) was measured by ELISA. The concentration of compound at which LPS- or interferon-γ-induced cytokine release was suppressed by 50% compared to vehicle-only-treated cells (EC50) was calculated using Prism® software. Table 9 lists the EC50 for two compounds tested in this assay.

Assay [3] has as its system murine peritoneal macrophage nitric oxide production. Kind of assay: inhibition of peritoneal macrophage nitric oxide release (Greiss assay). Type of assay: cell-based, mice. As to conditions: Mus musculus, LPS 10 ng/ml and interferon-γ 10 units/ml, 24 hours, read-out: % Nitrite concentration inhibition from control. The protocol:
C57BL6/J male mice were injected intraperitoneally with 2 ml of thioglycollate. Five (5) days later peritoneal macrophages were collected by lavaging the peritoneum of anaesthetized mice with 3 ml of cold Hanks buffered saline solution. Cells from several mice were pooled, washed and re-suspended in DMEM supplemented with 5% FCS. Cells were plated in 96 well plastic tissue culture plates at 1×10^5 cells/well. Cells were treated with compound or vehicle for 1 hour in a 5% CO2 incubator at 37° C. Cells were then treated with LPS (10 ng/ml) and recombinant human interferon-γ (10 units/ml) and incubated for 24 hours. After 24 hours, 50 μl of supernatant from each well was carefully removed and transferred to ELISA plates. The concentration of nitrite in culture supernatants was measured by the Greiss assay (27). The results were defined as the percentage inhibition of nitrite concentration in compound-treated cell culture supernatants compared to that of vehicle-treated cells.

Assay [4] relates to IL-1-induced proliferation of human rheumatoid arthritis FLS. Description: inhibition of human rheumatoid arthritis synovial fibroblast proliferation. The class given is cell-based. The protocol:
Fibroblast-like synoviocytes (FLS) were obtained from synovium of rheumatoid (RA) patients undergoing joint replacement surgery and prepared according to Lacey et al (26). FLS were isolated using enzyme digestion and cultured in RPMI/10% fetal calf serum (FCS) as previously described. A single cell suspension was obtained by digesting minced synovial tissue with 2.4 mg/ml Dispase (grade II, 5 U/mg) 1 mg/ml collagenase (type II) and DNase (type 1). FLS were propagated in 10 cm culture plates in RPMI supplemented with 10% FCS at 37° C. in a 5% CO2 humidified incubator. Cells beyond 3rd passage were more than 99% CD45−. Cells were used between passages 4 and 9. Cells from four individual human RA donor FLS used.
To determine the effect of compound 5 on FLS proliferation, DNA synthesis was measured by [^3H] thymidine incorporation. FLS were seeded overnight at 0.5×10^5 cells per well in 24 well tissue culture plates in RPMI/10% FCS. Cell growth was synchronised by culturing FLS in RPMI/0.1% bovine serum albumin for 24 h. […] FLS were detached using Trypsin-EDTA, harvested using a cell harvester, and the radioactivity incorporated into DNA determined using a Wallac 1409 liquid scintillation counter. Results were expressed as the percentage of control (untreated) cell proliferation, and the mean±SEM of four experiments calculated.

Molecules are shown by their SMILES. Like-named read-outs stand apart in the source and are kept apart here.

The EC50 is the concentration that produces a half-maximal response. With `CCCCCOC(=O)c1ccc2[nH]c(=O)[nH]c2c1` [Compound 5], in assay [1] (FIG. 10a, p=0.0024), the total arthritis score entry is listed as “statistically significant reduction”. The “severity of all individual parameters of arthritis” value in assay [1] (FIG. 10b) was “Statistically significant reductions”. Further, the concentration for a half-maximal effect (EC50) was determined as 0.075 µM in assay [2] ([LPS] 10 ng/mL, read-out: EC50, IL-1 release) and 17.7 µM in assay [2] ([LPS] 100 ng/mL, read-out: EC50, IL-6 release). Further, the inhibition at 25 µM in assay [3] (compound 25 μM) was 11.1%. Moreover, the inhibition at 50 µM in assay [3] (compound 50 μM) worked out at 19.7%. Besides, the inhibition at 100 µM in assay [3] (compound 100 μM) came to 28.6%. In addition, the “FLS proliferation, percentage of control (untreated) cell proliferation” value in assay [4] (IL-1β 0.1 ng/ml + compound 5 50 μM, mean±SEM of four experiments, IL-1 + vehicle 156 ± 32) was 18 ± 6 percentage of control. In addition, in assay [4] (compound 5 50 μM), the “IL-1-induced FLS proliferation” value is “marked and statistically significant inhibition”.

The values are drawn from patent publication US7709514B2, “Therapeutic molecules and methods-1” (Cortical Pty Ltd, priority 2002, dated 2010).
